Data reported in patent US9616140B2, “Fluorescent phospholipid ether compounds, compositions, and methods of use” (Cellectar, Inc., priority 2009, dated 2017).

Experiments:
[1] = test system: NFA cells; assay: Co-culture NFA/Caki-2, co-staining with nucleus stain and lysosome marker; assay type: cell-based; settings: co-culture with Caki-2, 5 μM, 24 hours
Method: (§1) Briefly, NFA and Caki-2 cell lines were co-cultured overnight on micro slide VI (Ibidi, Verona, Wis.). The next day, the cells were incubated with 5 μM of CLR1501 for 24 hours at 37° C. in complete media. The next day after washing with PBS, the cells were co-stained with nucleus stain (Hoechst 33342) and lysosome marker (Lyso-tracker), (Invitrogen, Carlsbad, Calif.). The cells were observed using Nikon A1R confocal microscope. CLR1501 was excited and detected using Alexa-Fluor 488 filter while nucleus stain and lysosome stain were excited and detected using DAPI and Texas-Red filter, respectively.

[2] = test system: Caki-2 cells; assay: as above; assay type: cell-based; settings: 5 μM, 24 hours
Method: as §1

[3] = test system: skin melanoma (A375) cells; assay: Distribution of CLR1501 in cancer skin cells; assay type: cell-based
Method: To study the distribution of CLR1501 in cancer skin cells versus normal skin cells, CLR1501 was introduced into skin melanoma (A375) and normal skin (704sk) cells, purchased from ATCC. Both cells were maintained at 37° C. in DMEM media supplemented with 10% FBS and 5% CO2. Before imaging, the cells were removed from flasks with 0.25% trypsin and were allowed to grow overnight on the slides (Ibidi, microslides VI flat, Catalog No: 80626). […] CRL1501 was formulated with 0.4% of Polysorbate 20, 2% of ethanol and saline. After washing thoroughly with PBS, the cells were imaged using Bio-Rad Radiance 2100 MP Rainbow with 1 second exposure time.

[4] = test system: PC3 cells; assay: Co-culture NFA/PC3, co-staining with nucleus stain and mitochondria marker; assay type: cell-based; settings: 5 μM, 24 hours
Method: as §1, with “and PC3” for “and Caki-2”, “and mitochondria” for “and lysosome”, “marker (Mitotracker),” for “marker (Lyso-tracker),”, “488 filter,” for “488 filter”, “DAPI filter” for “DAPI”

[5] = test system: NFA cells; assay: as above; assay type: cell-based; settings: NFA (normal), 5 μM, 24 hours
Method: as §1, with “and PC3” for “and Caki-2”, “and mitochondria” for “and lysosome”, “marker (Mitotracker),” for “marker (Lyso-tracker),”, “488 filter,” for “488 filter”, “DAPI filter” for “DAPI”

[6] = test system: normal skin (704sk) cells; assay: Distribution of CLR1501 in normal skin cells; assay type: cell-based; settings: 7.5 μM, 24 hours
Method: To study the distribution of CLR1501 in cancer skin cells versus normal skin cells, CLR1501 was introduced into skin melanoma (A375) and normal skin (704sk) cells, purchased from ATCC. Both cells were maintained at 37° C. in DMEM media supplemented with 10% FBS and 5% CO2. Before imaging, the cells were removed from flasks with 0.25% trypsin and were allowed to grow overnight on the slides (Ibidi, microslides VI flat, Catalog No: 80626). The next day, the media was gently replaced with Phosphate Buffered Saline (PBS) and the cells were incubated with 7.5 μM of CLR1501 on DMEM media for 24 hours. CRL1501 was formulated with 0.4% of Polysorbate 20, 2% of ethanol and saline. After washing thoroughly with PBS, the cells were imaged using Bio-Rad Radiance 2100 MP Rainbow with 1 second exposure time.

[7] = test system: Caki-2 (clear cell carcinoma) cells; assay: Intensity of signal emitted by CLR1501, confocal microscopy; assay type: cell-based; settings: 5 μM CLR1501, 24 hours
Method: (§2) Similar experiments were performed on several other cancerous cell lines: colorectal adenocarcinoma, uterine carcinoma, pancreatic carcinoma, ovarian adenocarcinoma, glioblastoma, clear cell carcinoma, and prostate adenocarcinoma. For comparison reasons, normal fibroblast cells were incubated with CLR1501.
(§3) Briefly, cells were plated overnight in micro slides VI (Ibidi, Verona, Wis.). The next day the cells were incubated with 5 μM of CLR1501 for 24 hours at 37° C. The cells were washed with PBS before the images were taken. The images were obtained using Nikon A1R confocal microscope. The length of exposure and intensity of the laser were similar among samples. CLR1501 was obtained using Alexa Fluor 488 filters (488 nm excitation-520 nm emission wavelength).
(§4) Table 1 illustrates intensity of signal emitted by CLR1501 in cancerous cell lines versus normal cells.

[8] = test system: Ovcar-3 (ovarian adenocarcinoma) cells; assay: as above; assay type: cell-based; settings: 5 μM CLR1501, 24 hours
Method: as §2, §3, §4

[9] = test system: NFA (normal fibroblast cells); assay: as above; assay type: cell-based; settings: 5 μM CLR1501, 24 hours
Method: as §2, §3, §4

[10] = test system: Panc-1 (pancreatic carcinoma) cells; assay: as above; assay type: cell-based; settings: 5 μM CLR1501, 24 hours
Method: as §2, §3, §4

[11] = test system: PC3 (prostate adenocarcinoma) cells; assay: as above; assay type: cell-based; settings: 5 μM CLR1501, 24 hours
Method: as §2, §3, §4

[12] = test system: Panc-1 (pancreatic carcinoma) tumors; assay: In vivo fluorescence imaging of CLR1501 distribution in Panc-1 tumor-bearing athymic nude mice; set-up: species or system mouse
Method: Athymic nude mice (Hsd: Athymic Nude-Fox1^nu), inoculated with Panc-1 (Pancreatic carcinoma), were injected with 150 μL of 6 mg/mL CLR1501 formulated in 0.4% Polysorbate 20, 2% ethanol and saline 24 hour and 96 hours prior to imaging. The fluorescence images were obtained using a Kodak In-Vivo Multispectral System FX. The system provides multispectral tuning of excitation light which is able to separate signals from the dye and from the body autofluorescence. Mice were anesthetized by inhalation of isofluorane. The dyes were excited at 570 nm. […] The mouse was inoculated with 1×10^6 Panc-1 cells (human pancreatic carcinoma). […] CLR1501 was excited at 480 and emitted at 520 nm. The intensity was monitored at 24 and 96 hours using Kodak in vivo imaging system (Carestream Health, Woodbridge, Conn.).

[13] = test system: tumor cell lines (HCT-116, MES SA/DX-5, Mia Paca-2, Panc-1, Ovcar-3, U-87MG, Caki-2, PC3); assay: Uptake of CLR1501 in cancerous cell lines versus normal cells; assay type: cell-based
Method: as §2, §3

[14] = test system: Panc-1 cells (human pancreatic carcinoma); assay: Retention of CLR1501 in pre-incubated Panc-1 cells inoculated into athymic nude mouse; assay type: in vivo; settings: Panc-1 cells incubated 4 hours, then inoculated
Method: FIG. 10 depicts tumor co-localization of CLR1501 in athymic nude mouse. […] The mouse was inoculated with 1×10^6 Panc-1 cells (human pancreatic carcinoma) which were incubated with CLR1501 or Kodak X-Sight 761 or both CLR1501 and Kodak X-Sight 761 for 4 hours. The cells were harvested and inoculated in different spots. The signals from each dye were obtained using Kodak in vivo imaging system (Carestream Health, Woodbridge, Conn.). CLR1501 was excited at 480 and emitted at 520 nm while the Kodak X-Sight was excited at 750 and emitted at 830 nm.

[15] = test system: glioblastoma cells (U87MG); assay: Incubation of glioblastoma cells with CLR1501 and co-staining; assay type: cell-based; settings: 48 hours
Method: The following co-stained dyes were used: Hoechst 33342 (1 μg/mL) (nucleus; blue color), Mitotracker (25 nM) (mitochondria, red color) and Blue-White DPX (100 nM) (Endoplasmic Reticulum (ER), blue color) were diluted in PBS and added to the cells for 15 minutes. The cells were washed with PBS and imaged with Bio-Rad Radiance 2100 MP Rainbow.

[16] = test system: xenograft and spontaneous primary and metastatic human and rodent tumor models; settings: cited from earlier work
[17] = injected 96 hours prior to imaging

C[N+](C)(C)CCOP(=O)([O-])OCCCCCCCCCCCCCCCCCCc1ccc(C2=C3C=CC=[N+]3[B-](F)(F)n3cccc32)cc1 [CLR1501, 18-[p-(4,4-difluoro-4-bora-3a,4a-diaza-s-indacene-8-yl)-phenyl]-octadecyl phosphocholine]
Co-localization with nucleus ([1]; NFA (normal)): not co-localized with nucleus
Co-localization with lysosome ([1]; NFA): minimally with NFA
Co-localization with nucleus ([2]; Caki-2 (tumor)): not co-localized with nucleus
Co-localization with lysosome ([2]; Caki-2): co-localized with lysosome
Cellular distribution ([3]; 7.5 μM, 24 hours): internalization of CLR1501 into numerous fluorescent vesicles that are scattered throughout the cytoplasm
Early time uptake profile ([3]; half an hour after incubation): signals are thin and limited at the plasma membrane
Early time uptake profile ([3]; one hour after incubation): signals are not concentrated solely in the plasma membrane: intracellular structures are also observed
Co-localization with nucleus ([4]; PC3 (tumor)): not co-localized with nucleus
Co-localization with mitochondria ([4]; PC3): co-localized with mitochondria
Co-localization with nucleus [5]: not co-localized with nucleus
Cellular distribution [6]: transported to the lysosomes where it was degraded
Relative intensity to normal cells [7]: 10.11
Average grey intensity ([7]; 37° C.): 151.56
Relative intensity to normal cells [8]: 6.2
Average grey intensity ([8]; 37° C.): 92.86
Relative intensity to normal cells [9]: 1
Average grey intensity ([9]; 37° C.): 14.99
Relative intensity to normal cells [10]: 9.58
Average grey intensity ([10]; 37° C.): 143.65
Relative intensity to normal cells [11]: 12.01
Average grey intensity ([11]; 37° C.): 180.04
Tumor co-localization over time ([12]; 1 mg in 0.15 mL, monitored at 24 and 96 hours, de-skinned): accumulated in tumor site, while it cleared out from the rest of normal organs
Distribution of fluorescence signal in vivo ([12]; injected 150 μL of 6 mg/mL, 24 and 96 hours prior to imaging): found mostly in the tumors
Accumulation in the tumor [12, 17]: more pronounced
Retention of the dye in other tissues [12, 17]: tremendously reduced
Uptake in cancerous cell lines ([13]; FIGS. 2c-2i and 2k-2l, 5 μM, 24 hours): significant uptake
Penetration into the nucleus ([13]; the in vitro experiments overall): does not penetrate inside of the nucleus
Uptake by tumor cells relative to normal fibroblast cells ([13]; tumor cells of Table 1 vs NFA): 6-12 times
Retention in cancer cells after inoculation [14]: continues to be retained in these cells after in vivo subcutaneous injection
Site of accumulation in cells [15]: mostly accumulated in cytoplasm of the cells
Co-localization with organelles ([15]; Mitotracker, Blue-White DPX): co-localized with mitochondria and ER

C[N+](C)(C)CCOP(=O)([O-])OCCCCCCCCCCCCCCCCCCc1ccc(I)cc1 [NM404, 18-p-(iodophenyl)-octadecyl phosphocholine]
Duration of selective retention in tumors ([16]; mouse models): > 80 days
Tumor models showing selective retention ([16]; xenograft and spontaneous primary and metastatic tumor models): 37 out of 37
